Experimental data: PubChem BioAssay AID280 (DTP/NCI, 2004)
Values joined by “and” are separate entries in the source; they are usually repeats but may differ in a detail not shown here. Identical values can stand only once. Inconclusive results and toxic doses are left out.

Tested on: nude mice, LOX melanoma ip, survival T/C
Experiment: NCI In Vivo Anticancer Drug Screen. Data for tumor model Human Amelanotic Melanoma (LOX) (intraperitoneal) in NU/NU BALB/C (nude) mice
Details: endpoint: median survival time, higher = longer survival
Procedure: The antitumor activity of compounds was measured in mice bearing transplantable tumors. Survival or tumor size were measured and the results are expressed as the measurement made in the treated group (T) divided by the measurement made in the vehicle treated control group (C). The tumor model used in this assay is Human Amelanotic Melanoma (LOX) (intraperitoneal) in NU/NU BALB/C (nude) mice

[1] = dose: 18.0 mg/kg/injection, schedule: Q04DX003 (ip), vehicle: Klucel (hydroxypropylcellulose) (HPC)
[2] = dose: 50.0 mg/kg/injection, schedule: Q04DX003 (ip), vehicle: saline with Tween-80
[3] = dose: 200.0 mg/kg/injection, schedule: Q04DX003 (ip), vehicle: saline with Tween-80

O=C(O)Cc1cccc2c(=O)cc(-c3ccccc3)oc12
T/C (dose: 25.0 mg/kg/injection, schedule: Q04DX003 (ip), vehicle: sodium bicarbonate): 108 % of control
T/C (dose: 50.0 mg/kg/injection, schedule: Q04DX003 (ip), vehicle: sodium bicarbonate): 119 % of control

Cc1ccc(/C=C/C(=O)/C=C/c2ccc(C)o2)o1
T/C (dose: 50.0 mg/kg/injection, schedule: Q04DX003 (ip), vehicle: DMSO): 113 % of control
T/C (dose: 100.0 mg/kg/injection, schedule: Q04DX003 (ip), vehicle: DMSO): 102 % of control
T/C (dose: 200.0 mg/kg/injection, schedule: Q04DX003 (ip), vehicle: DMSO): 98 % of control
T/C (dose: 400.0 mg/kg/injection, schedule: Q04DX003 (ip), vehicle: DMSO): 100 % of control
T/C (dose: 800.0 mg/kg/injection, schedule: Q04DX003 (ip), vehicle: DMSO): 106 % of control

CN=C(N)N/N=C(\C)c1ccc2oc3ccc(/C(C)=N/NC(N)=NC)cc3c2c1
T/C [1]: 102 % of control and 123 % of control
T/C (dose: 30.0 mg/kg/injection, schedule: Q04DX003 (ip), vehicle: Klucel (hydroxypropylcellulose) (HPC)): 117 % of control and 99 % of control
T/C (dose: 83.0 mg/kg/injection, schedule: Q04DX003 (ip), vehicle: Klucel (hydroxypropylcellulose) (HPC)): 116 % of control
T/C (dose: 83.33 mg/kg/injection, schedule: Q04DX003 (ip), vehicle: Klucel (hydroxypropylcellulose) (HPC)): 88 % of control
T/C (dose: 100.0 mg/kg/injection, schedule: Q04DX003 (ip), vehicle: Klucel (hydroxypropylcellulose) (HPC)): 108 % of control

O=NN(CCCl)C(=O)Oc1ccc(OC(=O)N(CCCl)N=O)cc1
T/C (dose: 20.0 mg/kg/injection, schedule: Q04DX003 (ip), vehicle: Klucel (hydroxypropylcellulose) (HPC)): 118 % of control
T/C (dose: 40.0 mg/kg/injection, schedule: Q04DX003 (ip), vehicle: Klucel (hydroxypropylcellulose) (HPC)): 94 % of control

Nc1ccc2ccc(N)cc2c1
T/C (dose: 25.0 mg/kg/injection, schedule: Q04DX003 (ip), vehicle: saline with Tween-80): 102 % of control
T/C [2]: 101 % of control
T/C (dose: 100.0 mg/kg/injection, schedule: Q04DX003 (ip), vehicle: saline with Tween-80): 102 % of control
T/C [3]: 91 % of control
T/C (dose: 400.0 mg/kg/injection, schedule: Q04DX003 (ip), vehicle: saline with Tween-80): 101 % of control

O=C1C=CC(=CC=C2C=CN(CCCCCCCCCCCO)C=C2)C=C1
T/C (dose: 6.25 mg/kg/injection, schedule: Q04DX003 (ip), vehicle: saline with Tween-80): 107 % of control
T/C (dose: 12.5 mg/kg/injection, schedule: Q04DX003 (ip), vehicle: saline with Tween-80): 100 % of control
T/C (dose: 36.0 mg/kg/injection, schedule: Q04DX003 (ip), vehicle: saline with Tween-80): 109 % of control and 110 % of control
T/C [2]: 117 % of control
T/C (dose: 60.0 mg/kg/injection, schedule: Q04DX003 (ip), vehicle: saline with Tween-80): 116 % of control and 120 % of control
T/C [3]: 159 % of control

CN=C(NC)c1ccc(NC(=O)/C=C\c2ccc(/C=C/C(=O)Nc3ccc(C(=NC)NC)cc3)cc2)cc1
T/C (dose: 0.78 mg/kg/injection, schedule: Q04DX003 (ip), vehicle: Klucel (hydroxypropylcellulose) (HPC)): 104 % of control
T/C (dose: 1.56 mg/kg/injection, schedule: Q04DX003 (ip), vehicle: Klucel (hydroxypropylcellulose) (HPC)): 109 % of control
T/C (dose: 2.0 mg/kg/injection, schedule: Q04DX003 (ip), vehicle: Klucel (hydroxypropylcellulose) (HPC)): 90 % of control
T/C (dose: 2.25 mg/kg/injection, schedule: Q04DX003 (ip), vehicle: Klucel (hydroxypropylcellulose) (HPC)): 101 % of control
T/C (dose: 3.75 mg/kg/injection, schedule: Q04DX003 (ip), vehicle: Klucel (hydroxypropylcellulose) (HPC)): 87 % of control
T/C (dose: 4.0 mg/kg/injection, schedule: Q04DX003 (ip), vehicle: Klucel (hydroxypropylcellulose) (HPC)): 105 % of control
T/C (dose: 6.0 mg/kg/injection, schedule: Q04DX003 (ip), vehicle: Klucel (hydroxypropylcellulose) (HPC)): 111 % of control
T/C (dose: 10.0 mg/kg/injection, schedule: Q04DX003 (ip), vehicle: Klucel (hydroxypropylcellulose) (HPC)): 105 % of control
T/C (dose: 11.0 mg/kg/injection, schedule: Q04DX003 (ip), vehicle: Klucel (hydroxypropylcellulose) (HPC)): 98 % of control
T/C (dose: 12.5 mg/kg/injection, schedule: Q04DX003 (ip), vehicle: Klucel (hydroxypropylcellulose) (HPC)): 109 % of control
T/C (dose: 17.0 mg/kg/injection, schedule: Q04DX003 (ip), vehicle: Klucel (hydroxypropylcellulose) (HPC)): 90 % of control
T/C [1]: 95 % of control

O=C(CCCN1CCC(C(O)c2ccc(F)cc2)CC1)c1ccc(F)cc1 (stereo not given)
T/C (dose: 6.25 mg/kg/injection, schedule: Q01DX009 (ip), vehicle: saline with Tween-80): 95 % of control
T/C (dose: 12.5 mg/kg/injection, schedule: Q01DX009 (ip), vehicle: saline with Tween-80): 107 % of control
T/C (dose: 12.5 mg/kg/injection, schedule: Q01DX009 (oral), vehicle: saline with Tween-80): 109 % of control
T/C (dose: 25.0 mg/kg/injection, schedule: Q01DX009 (ip), vehicle: saline with Tween-80): 101 % of control
T/C (dose: 25.0 mg/kg/injection, schedule: Q01DX009 (oral), vehicle: saline with Tween-80): 99 % of control
T/C (dose: 50.0 mg/kg/injection, schedule: Q01DX009 (ip), vehicle: saline with Tween-80): 115 % of control
T/C (dose: 50.0 mg/kg/injection, schedule: Q01DX009 (oral), vehicle: saline with Tween-80): 107 % of control
T/C (dose: 100.0 mg/kg/injection, schedule: Q01DX009 (oral), vehicle: saline with Tween-80): 107 % of control

CCC(c1ccc(O)cc1)C(CC)c1ccc(OCCN)cc1 (stereo not given)
T/C (dose: 62.5 mg/kg/injection, schedule: Q04DX003 (ip), vehicle: saline with Tween-80): 88 % of control
T/C (dose: 125.0 mg/kg/injection, schedule: Q04DX003 (ip), vehicle: saline with Tween-80): 104 % of control
T/C (dose: 250.0 mg/kg/injection, schedule: Q04DX003 (ip), vehicle: saline with Tween-80): 93 % of control
T/C (dose: 500.0 mg/kg/injection, schedule: Q04DX003 (ip), vehicle: saline with Tween-80): 92 % of control
T/C (dose: 1000.0 mg/kg/injection, schedule: Q04DX003 (ip), vehicle: saline with Tween-80): 93 % of control

COc1cc2cc(c1Cl)N(C)C(=O)C[C@H](OC(=O)[C@H](C)N(C)C(C)=O)[C@]1(C)O[C@H]1[C@H](C)[C@@H]1C[C@@](O)(NC(=O)O1)[C@H](OC)C=C/C=C(\C)C2
T/C (dose: 0.07 mg/kg/injection, schedule: Q04DX003 (ip), vehicle: Klucel (hydroxypropylcellulose) (HPC)): 304 % of control
T/C (dose: 0.12 mg/kg/injection, schedule: Q04DX003 (ip), vehicle: Klucel (hydroxypropylcellulose) (HPC)): 304 % of control
T/C (dose: 0.2 mg/kg/injection, schedule: Q04DX003 (ip), vehicle: Klucel (hydroxypropylcellulose) (HPC)): 304 % of control and 323 % of control
T/C (dose: 0.33 mg/kg/injection, schedule: Q04DX003 (ip), vehicle: Klucel (hydroxypropylcellulose) (HPC)): 304 % of control
T/C (dose: 0.4 mg/kg/injection, schedule: Q04DX003 (ip), vehicle: Klucel (hydroxypropylcellulose) (HPC)): 95 % of control
T/C (dose: 0.56 mg/kg/injection, schedule: Q04DX003 (ip), vehicle: Klucel (hydroxypropylcellulose) (HPC)): 304 % of control

CC1=C[P+](c2ccccc2)(c2ccccc2)C=C(c2ccccc2)O1
T/C (dose: 0.38 mg/kg/injection, schedule: Q04DX003 (ip), vehicle: saline): 97 % of control
T/C (dose: 3.0 mg/kg/injection, schedule: Q04DX003 (ip), vehicle: saline): 88 % of control

O=C1c2cccc(NCCCNCCO)c2C(=O)c2cccc(NCCCNCCO)c21
T/C (dose: 4.69 mg/kg/injection, schedule: Q04DX003 (ip), vehicle: saline): 116 % of control
T/C (dose: 6.75 mg/kg/injection, schedule: Q04DX003 (ip), vehicle: acid diluted with saline): 113 % of control and 97 % of control
T/C (dose: 9.38 mg/kg/injection, schedule: Q04DX003 (ip), vehicle: saline): 124 % of control
T/C (dose: 11.0 mg/kg/injection, schedule: Q04DX003 (ip), vehicle: acid diluted with saline): 117 % of control
T/C (dose: 11.25 mg/kg/injection, schedule: Q04DX003 (ip), vehicle: acid diluted with saline): 97 % of control
T/C (dose: 18.7 mg/kg/injection, schedule: Q04DX003 (ip), vehicle: acid diluted with saline): 111 % of control
T/C (dose: 18.75 mg/kg/injection, schedule: Q04DX003 (ip), vehicle: acid diluted with saline): 106 % of control
T/C (dose: 31.25 mg/kg/injection, schedule: Q04DX003 (ip), vehicle: acid diluted with saline): 112 % of control
T/C (dose: 37.5 mg/kg/injection, schedule: Q04DX003 (ip), vehicle: saline): 105 % of control
T/C (dose: 75.0 mg/kg/injection, schedule: Q04DX003 (ip), vehicle: saline): 86 % of control

O=C1CNC(=O)N1CN1CCOCC1
T/C (dose: 150.0 mg/kg/injection, schedule: Q04DX003 (ip), vehicle: Klucel (hydroxypropylcellulose) (HPC)): 177 % of control
T/C (dose: 600.0 mg/kg/injection, schedule: Q04DX003 (ip), vehicle: Klucel (hydroxypropylcellulose) (HPC)): 152 % of control
